According to PubChem BioAssay (NCI):
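All cell lines were grown in 96-well plates and treated with compound for 48 hours. TGI denotes the concentration required for complete inhibition of growth.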

What was measured:
Experiment in all cases: NCI anticancer screen, dose series, 48 h
A498 renal = tested on: A498 renal
HCC-2998 colon = tested on: HCC-2998 colon
HS 578T breast = tested on: HS 578T breast
K-562 leukemia = tested on: K-562 leukemia
KM12 colon = tested on: KM12 colon
M14 melanoma = tested on: M14 melanoma
NCI-H226 lung = tested on: NCI-H226 lung
NCI-H522 lung = tested on: NCI-H522 lung
OVCAR-3 ovarian = tested on: OVCAR-3 ovarian
OVCAR-4 ovarian = tested on: OVCAR-4 ovarian
OVCAR-5 ovarian = tested on: OVCAR-5 ovarian
OVCAR-8 ovarian = tested on: OVCAR-8 ovarian
PC-3 prostate = tested on: PC-3 prostate
SF-268 CNS = tested on: SF-268 CNS
SF-539 CNS = tested on: SF-539 CNS
SK-MEL-2 melanoma = tested on: SK-MEL-2 melanoma
SK-MEL-5 melanoma = tested on: SK-MEL-5 melanoma
TK-10 renal = tested on: TK-10 renal
MALME-3M melanoma = tested on: MALME-3M melanoma

| SMILES | TGI (A498 renal) [µM] | TGI (HCC-2998 colon) [µM] | TGI (HS 578T breast) [µM] | TGI (K-562 leukemia) [µM] | TGI (KM12 colon) [µM] | TGI (M14 melanoma) [µM] | TGI (NCI-H226 lung) [µM] | TGI (NCI-H522 lung) [µM] | TGI (OVCAR-3 ovarian) [µM] | TGI (OVCAR-4 ovarian) [µM] | TGI (OVCAR-5 ovarian) [µM] | TGI (OVCAR-8 ovarian) [µM] | TGI (PC-3 prostate) [µM] | TGI (SF-268 CNS) [µM] | TGI (SF-539 CNS) [µM] | TGI (SK-MEL-2 melanoma) [µM] | TGI (SK-MEL-5 melanoma) [µM] | TGI (TK-10 renal) [µM] | TGI (MALME-3M melanoma) [µM] |
| --- | --- | --- | --- | --- | --- | --- | --- | --- | --- | --- | --- | --- | --- | --- | --- | --- | --- | --- | --- |
| CC1=CC(=O)[C@@H](O)[C@]2(C)[C@H]3[C@@]4(O)OC[C@]35[C@H]([C@@H](C)[C@H]4O)[C@@H](OC(=O)C(C)(C)CO)C(=O)O[C@@H]5C[C@@H]12 | 5.39 | 1 | 0.897 | > 100 | 0.787 | 0.446 | 0.553 | 0.417 | 1.92 | 1.9 | 23.3 | 2.52 | 4.84 | 0.236 | < 0.0261 | 0.559 | 0.187 |  |  |
| CCN(CC)c1ccc2cc(C(N)=O)c(=N)oc2c1 | > 100 | 57.2 | 45.8 | > 100 | > 100 | > 100 | > 100 |  | > 100 | 74.1 | > 100 | > 100 | 87.6 | > 100 | > 100 | 54.1 | > 100 |  |  |
| CC(C)=C1C(=O)C[C@]2(C)C[C@H]3O[C@]3(C)CC[C@@H]3O[C@@]3(C)CC[C@@H]12 | > 50 | > 50 | > 50 | > 50 | > 50 | > 50 | > 50 | > 50 | > 50 | > 50 | > 50 | > 50 | > 50 | > 50 | > 50 | > 50 |  | > 50 |  |
| NC(=O)c1ccc(C(=O)Nc2ccc([As](=O)(O)O)cc2)cc1 | > 100 |  | > 100 | > 100 | > 100 | > 100 | > 100 | > 100 | > 100 | > 100 | > 100 | > 100 | > 100 | > 100 |  | > 100 | > 100 | > 100 | > 100 |
| O=C(OCc1ccccc1)N(CCCCN(CCCNC(=O)C(F)(F)F)C(=O)OCc1ccccc1)CCCNC(=O)C(F)(F)F | > 100 | > 100 | > 100 | > 100 | > 100 | > 100 | > 100 | > 100 | > 100 | > 100 | > 100 | > 100 | > 100 | > 100 | > 100 | > 100 | > 100 | > 100 |  |
| O=c1c2cccnc2n2n1Cc1ccccc1C2 | > 100 | > 100 | > 100 | > 100 |  |  | > 100 | > 100 | > 100 | > 100 | > 100 | > 100 | > 100 | > 100 | > 100 |  | > 100 | > 100 | > 100 |
| CC1OC(OC2C(OC(=O)[C@]34CCC(C)(C)C[C@H]3C3=CC[C@@H]5[C@@]6(C)CC[C@H](OC7OC(C(=O)O)C(O)C(O)C7O)C(C)(C)[C@@H]6CC[C@@]5(C)[C@]3(C)C[C@H]4O)OCC(O)C2O)C(O)C(O)C1OC1OCC(OC2OCC(O)C(O)C2O)C(O)C1O (stereo partly specified) | 3.06 | 3.03 | 37.9 | 47.8 | 14 | 11.5 | 22.9 | 16.5 | 30 | 9.31 | 20.1 | 32.3 | 19.3 | 26.3 |  | 11.7 | 27.2 |  | 25.3 |
| Nc1ncc(Br)c(NCC2(CO)CCC2)n1 | > 100 | > 100 | > 100 | > 100 | > 100 |  | > 100 | > 100 | > 100 | > 100 | > 100 | > 100 | > 100 | > 100 | > 100 | > 100 | > 100 | > 100 | > 100 |
| COc1c2c(cc3c1C(=O)c1c(O)cccc1C3=O)CC(O)CC2 (stereo unspecified) | > 100 | > 100 | 74.1 | > 100 | > 100 | > 100 | > 100 |  | > 100 | > 100 | > 100 | > 100 | > 100 |  | > 100 | > 100 | > 100 | > 100 | > 100 |
| CCOC(=O)c1c(SC(=O)c2ccc(C(C)(C)C)cc2)n(-c2ccccc2)c(=S)n(-c2ccccc2)c1=O | > 100 | > 100 | > 100 | > 100 | > 100 | > 100 | > 100 | > 100 | > 100 | > 100 | > 100 | > 100 | > 100 | > 100 | > 100 |  |  | > 100 | > 100 |
| Cc1ccc(Cc2n[nH]c(=O)[nH]2)cc1 | > 100 | > 100 | > 100 | > 100 | > 100 | > 100 | > 100 |  | > 100 | > 100 | > 100 | > 100 | > 100 |  | > 100 | > 100 | > 100 | > 100 | > 100 |
| O=C1NC(N/N=C/c2ccccc2)=N/C1=C\c1ccco1 | > 100 | > 100 | 78.3 |  | > 100 | > 100 | > 100 | 95.2 | > 100 | > 100 | > 100 | 34.9 | > 100 | 75.6 |  | > 100 | > 100 | 92.3 | > 100 |
| Cc1nnc2n1N=C(c1ccccc1)/C(=C/c1ccc(-c3ccc(Cl)cc3)o1)S2 | 31.4 | 19.9 | > 100 | 47.4 | 32.4 | 36.6 | 31.1 | 24.7 | 23.9 | 80 | 39.9 |  | 26 | 33.2 |  | 27.5 | 27.2 | 26.4 | 33.6 |
| O=C(NC(=S)Nc1ccc(Br)cc1)c1ccc2c(c1)Sc1ccccc1S2 | 36.8 |  | 59.7 | 24.5 | 74.8 | 42.9 | 47.7 | 52.6 | 41.2 | 33.5 | 40.2 | 34.7 | > 100 | 46.4 | 53.5 | 57.9 | > 100 | 30.9 | 48.5 |
| Nc1ccccc1-c1noc(=O)[nH]1 | > 100 | > 100 | > 100 | > 100 | > 100 | > 100 | > 100 | > 100 | > 100 | > 100 | > 100 | > 100 | > 100 | > 100 | > 100 | > 100 | > 100 | > 100 |  |
| C=C1C[C@@H]2CC[C@@]34CC5O[C@H]6C(O[C@H]7CC[C@H](CC(=O)O[C@@H]8[C@@H](C)[C@@H]9O[C@@H]%10C[C@]%11(C[C@@H]%12O[C@]%13(C[C@H](C)[C@@H]%14O[C@@H]%15CC(C(O)CO)O[C@@H]%15C[C@@H]%14O%13)C[C@H](C)[C@@H]%12O%11)O[C@@H]%10C[C@@H]9O[C@H]8CC8O[C@@H](CC[C@@H]1O2)C[C@@H](C)C8(O)CO)O[C@@H]7[C@@H]6O3)[C@H]5O4 (stereo partly specified) | > 1 | > 1 | > 0.815 | > 1 | > 1 | > 1 | > 1 | 0.614 | > 1 | > 1 | > 1 | > 1 | > 1 | > 1 |  | > 1 | > 1 | > 1 | > 1 |
| Cc1cccc2oc3c(CC(=O)O)cccc3c(=O)c12 | > 100 | 40.9 | > 100 | > 100 | > 100 | > 100 | > 100 | > 100 | > 100 | > 100 |  | > 100 | > 100 | > 100 | > 100 | 17.4 | > 100 | > 100 | > 100 |
| N#CC(C#N)=C1C(=Cc2ccc(OCCCCCCCCCCSSCCCCCCCCCCOc3ccc(C=C4C(=C(C#N)C#N)c5ccccc5C4=C(C#N)C#N)cc3)cc2)C(=C(C#N)C#N)c2ccccc21 | 48.5 | 28.9 | 52.4 | 60.4 | 78.1 | 47.9 | 63.6 | 34.7 | 89 | 52.9 | 35.5 | > 100 | 47.8 | 55.1 | 47 | 64 | 52.3 | > 100 |  |
| S=c1nc2sc3c(c2c(Nc2ccc(Cl)cc2)[nH]1)CCCC3 | > 100 | > 100 | > 100 | > 100 | > 100 |  | > 100 | > 100 | > 100 | > 100 | > 100 |  | > 100 | > 100 |  | > 100 | > 100 | > 100 | > 100 |
| C1=CC2(C=CC13O[C@H](C1CCCCC1)[C@@H](C1CCCCC1)O3)O[C@H](C1CCCCC1)[C@@H](C1CCCCC1)O2 | > 50 |  | > 50 | > 50 | > 50 | > 50 | > 50 |  | > 50 | > 50 | > 50 | > 50 | > 50 | > 50 | > 50 | > 50 | > 50 | > 50 | > 50 |
| O=C1NC(N/N=C/C(O)C(O)C(O)C(O)CO)=N/C1=C\c1ccco1 (stereo unspecified) | > 100 |  | > 100 | > 100 | > 100 | > 100 | > 100 | > 100 | > 100 | > 100 | > 100 | > 100 | > 100 | > 100 | > 100 | > 100 | > 100 | > 100 | > 100 |
| NC(=O)C(=CNC(N)=S)C(N)=O | > 100 | > 100 | > 100 | > 100 | > 100 | > 100 | > 100 | > 100 | > 100 | > 100 | > 100 | > 100 | > 100 | > 100 | > 100 | > 100 | > 100 |  | > 100 |
| C[N+](C)(CCCn1ccnc1[N+](=O)[O-])CCCn1ccnc1[N+](=O)[O-] | > 100 |  | > 100 | > 100 | > 100 | > 100 | > 100 | > 100 | > 100 | > 100 | > 100 | > 100 | > 100 | > 100 | > 100 | > 100 | > 100 | > 100 | > 100 |
| COc1ccc(NC(=S)Nc2cc(C)cc(C)n2)cc1 | > 100 |  | > 100 | > 100 | > 100 | > 100 | > 100 | > 100 | > 100 | > 100 | > 100 | > 100 | > 100 | > 100 | > 100 | > 100 | > 100 | > 100 | > 100 |
